Source: ChEMBL document CHEMBL5233236, “p62 as a therapeutic target for tumor” (Eur J Med Chem, 2020)

Columns and labels:
[1] = test system: MM1.S; experiment: Inhibition of cell growth in human MM1.S cells incubated for 48 hrs by MTT assay; format: functional, cell-based
[2] = Inhibition of full length human GST tagged LC3 (1 to 120 residues)/p62 (unknown origin) interaction expressed in Escherichia coli BL21 Star (DE3) incubated for 2 hrs by SPR based competitive binding assay
[3] = test system: MM1.S; experiment: Inhibition of cell growth in human MM1.S cells; format: functional

Compound: OCCNCc1ccc(OCc2ccccc2)c(OCc2ccccc2)c1
- IC50 [1]: 6.19 µM

Compound: OCCNCc1ccc(OCc2ccc(F)cc2)c(OCc2ccc(F)cc2)c1
- IC50 [1]: 4.6 µM

Compound: O=C(O)CSc1cc(NS(=O)(=O)c2ccc(Br)cc2)c2ccccc2c1O
- IC50 [2]: 0.9 µM

Compound: Fc1ccc(COc2ccc(CNCC3CCCCC3)cc2OCc2ccc(F)cc2F)c(F)c1
- IC50 [3]: 0.84 µM

Compound: O=C1CC(=O)c2ccc3c4c(ccc1c24)C(=O)CC3=O
- IC50 [2]: 2 µM
